Measured values published in US20140308733A1, “METHOD FOR INDUCING GERMINATION OF SPORE FORMING BACTERIUM” (CALPIS CO., LTD., priority 2011, published 2014).

Assays:
[1] = tested on: Bacillus subtilis C-3102 (FERM BP-1096); assay: Influence of the concentration of germination inducer on turbidity change (Example 2); assay type: cell-based; settings: for turbidity (630 nm): 37° C., 150 rpm
Procedure: Next, 500 μL aliquots of bacterial suspension of Bacillus subtilis C-3102 (FERM BP-1096) used in Example 1 were mixed with 500 μL of ferulic acid, or vanillic acid solutions described above, and the mixtures were adjusted to ferulic acid (10 to 600 ppm), or vanillic acid (10 to 1800 ppm) concentrations set forth in Table 2. The concentrations of ferulic acid at the reaction initiation were 10, 100, 300, and 600 ppm, and the concentrations of vanillic acid at the reaction initiation were 10, 100, 300, 600, 1200, and 1800 ppm.
As same as Example 1, defining the time point of mixing the bacterial suspension with the solution of ferulic acid, or vanillic acid as the reaction initiation (0 min), and continuing shaking (150 rpm) at 37° C., the absorbance (630 nm) was measured at 10, 20, 30, 40, 50, 60, 90, 120, and 180 min after the reaction initiation.

[2] = tested on: Bacillus subtilis C-3102 (FERM BP-1096); assay: Germination induction by ferulic acid, vanillic acid or p-coumaric acid at 300 ppm, turbidity change (Example 3); assay type: cell-based; settings: for turbidity (630 nm): 37° C., 150 rpm
Procedure: In each 500 mL of distilled water heated to 70° C. was added 0.3 g of ferulic acid, vanillic acid, or p-coumaric acid. After dissolving with stirring using a stirring rod with a propeller, filtration sterilization (0.45 μm filter) was conducted to prepare each 600 ppm-solution.
Next, 500 μL aliquots of bacterial suspension of Bacillus subtilis C-3102 (FERM BP-1096) prepared by a similar method as in Example 1 were mixed with 500 μL of each of the ferulic acid, vanillic acid, and p-coumaric acid solutions, and the mixtures were adjusted to 300 ppm of ferulic acid, vanillic acid, or p-coumaric acid concentration. Defining the time point of mixing as the reaction initiation (0 min), and continuing shaking (150 rpm) at 37° C., the turbidity (630 nm) was measured at 10, 20, 30, 40, 50, 60, 90, 120, and 180 min after the reaction initiation.

[3] = tested on: C-3102 strain; assay: Long time culture of spore suspension with inducer, turbidity up to 24 hours (proliferation check, Example 4); assay type: cell-based, Bacillus subtilis; settings: 500 μL spore suspension + 500 μL of 600 ppm solution
Procedure: This Example is an experiment to examine whether proliferation is recognizable or not, when ferulic acid or vanillic acid is mixed with a spore suspension of the C-3102 strain and cultured for a long time period.
The C-3102 strain was cultured on a nutrient plate at 37° C. for 3 days, and thereafter bacterial cells were collected by a bacteria spreader and a spore suspension was prepared similarly as in Example 1 (OD 630=1.0). After mixing 500 μL of the C-3102 spore suspension with 500 μL of a 600 ppm-ferulic acid solution, or a 600 ppm-vanillic acid solution, change in the turbidity (630 nm) up to 24 hours was examined.

## COc1cc(/C=C/C(=O)O)ccc1O [Ferulic acid, ferulic acid]
[1]; ferulic acid 10 ppm, 0 min after reaction initiation
  turbidity (630 nm): 0.584
[1]; ferulic acid 10 ppm, 10 min after reaction initiation
  turbidity (630 nm): 0.563
[1]; ferulic acid 10 ppm, 20 min after reaction initiation
  turbidity (630 nm): 0.553
[1]; ferulic acid 10 ppm, 30 min after reaction initiation
  turbidity (630 nm): 0.544
[1]; ferulic acid 10 ppm, 40 min after reaction initiation
  turbidity (630 nm): 0.533
[1]; ferulic acid 10 ppm, 50 min after reaction initiation
  turbidity (630 nm): 0.519
[1]; ferulic acid 10 ppm, 60 min after reaction initiation
  turbidity (630 nm): 0.507
[1]; ferulic acid 10 ppm, 90 min after reaction initiation
  turbidity (630 nm): 0.488
[1]; ferulic acid 10 ppm, 120 min after reaction initiation
  turbidity (630 nm): 0.447
[1]; ferulic acid 10 ppm, 180 min after reaction initiation
  turbidity (630 nm): 0.353
[1]; ferulic acid 100 ppm, 0 min after reaction initiation
  turbidity (630 nm): 0.583
[1]; ferulic acid 100 ppm, 10 min after reaction initiation
  turbidity (630 nm): 0.565
[1]; ferulic acid 100 ppm, 20 min after reaction initiation
  turbidity (630 nm): 0.556
[1]; ferulic acid 100 ppm, 30 min after reaction initiation
  turbidity (630 nm): 0.53
[1]; ferulic acid 100 ppm, 40 min after reaction initiation
  turbidity (630 nm): 0.52
[1]; ferulic acid 100 ppm, 50 min after reaction initiation
  turbidity (630 nm): 0.500
[1]; ferulic acid 100 ppm, 60 min after reaction initiation
  turbidity (630 nm): 0.484
[1]; ferulic acid 100 ppm, 90 min after reaction initiation
  turbidity (630 nm): 0.448
[1]; ferulic acid 100 ppm, 120 min after reaction initiation
  turbidity (630 nm): 0.383
[1]; ferulic acid 100 ppm, 180 min after reaction initiation
  turbidity (630 nm): 0.247
[1]; ferulic acid 300 ppm, 0 min after reaction initiation
  turbidity (630 nm): 0.579
[1]; ferulic acid 300 ppm, 10 min after reaction initiation
  turbidity (630 nm): 0.56
[1]; ferulic acid 300 ppm, 20 min after reaction initiation
  turbidity (630 nm): 0.547
[1]; ferulic acid 300 ppm, 30 min after reaction initiation
  turbidity (630 nm): 0.530
[1]; ferulic acid 300 ppm, 40 min after reaction initiation
  turbidity (630 nm): 0.520
[1]; ferulic acid 300 ppm, 50 min after reaction initiation
  turbidity (630 nm): 0.499
[1]; ferulic acid 300 ppm, 60 min after reaction initiation
  turbidity (630 nm): 0.466
[1]; ferulic acid 300 ppm, 90 min after reaction initiation
  turbidity (630 nm): 0.422
[1]; ferulic acid 300 ppm, 120 min after reaction initiation
  turbidity (630 nm): 0.354
[1]; ferulic acid 300 ppm, 180 min after reaction initiation
  turbidity (630 nm): 0.22
[1]; ferulic acid 600 ppm, 0 min after reaction initiation
  turbidity (630 nm): 0.586
[1]; ferulic acid 600 ppm, 10 min after reaction initiation
  turbidity (630 nm): 0.552
[1]; ferulic acid 600 ppm, 20 min after reaction initiation
  turbidity (630 nm): 0.545
[1]; ferulic acid 600 ppm, 30 min after reaction initiation
  turbidity (630 nm): 0.526
[1]; ferulic acid 600 ppm, 40 min after reaction initiation
  turbidity (630 nm): 0.515
[1]; ferulic acid 600 ppm, 50 min after reaction initiation
  turbidity (630 nm): 0.506
[1]; ferulic acid 600 ppm, 60 min after reaction initiation
  turbidity (630 nm): 0.477
[1]; ferulic acid 600 ppm, 90 min after reaction initiation
  turbidity (630 nm): 0.447
[1]; ferulic acid 600 ppm, 120 min after reaction initiation
  turbidity (630 nm): 0.379
[1]; ferulic acid 600 ppm, 180 min after reaction initiation
  turbidity (630 nm): 0.246
[1]; ferulic acid of 10 to 600 ppm
  germination induction versus concentration: germination was inducted at any concentration to the same extent
[2]
  germination confirmed by turbidity decrease: decreased, thereby to confirm germination
[2]; 0 min after reaction initiation
  turbidity (630 nm): 0.545
[2]; 10 min after reaction initiation
  turbidity (630 nm): 0.527
[2]; 20 min after reaction initiation
  turbidity (630 nm): 0.513
[2]; 30 min after reaction initiation
  turbidity (630 nm): 0.484
[2]; 40 min after reaction initiation
  turbidity (630 nm): 0.466
[2]; 50 min after reaction initiation
  turbidity (630 nm): 0.449
[2]; 60 min after reaction initiation
  turbidity (630 nm): 0.413
[2]; 90 min after reaction initiation
  turbidity (630 nm): 0.368
[2]; 120 min after reaction initiation
  turbidity (630 nm): 0.313
[2]; 180 min after reaction initiation
  turbidity (630 nm): 0.233
[3]; reaction time 0 hr
  turbidity (630 nm): 0.574
[3]; reaction time 0.5 hr
  turbidity (630 nm): 0.543
[3]; reaction time 1 hr
  turbidity (630 nm): 0.502
[3]; reaction time 1.5 hr
  turbidity (630 nm): 0.464
[3]; reaction time 2 hr
  turbidity (630 nm): 0.425
[3]; reaction time 3 hr
  turbidity (630 nm): 0.370
[3]; reaction time 24 hr
  turbidity (630 nm): 0.178
